Values joined by “and” are separate entries in the source; they are usually repeats but may differ in a detail not shown here. Identical values can stand only once. Counter-ions that a name gives are not always drawn. Marks after values point to notes of the source that are not given here.
Legend:
[1] = molecular target: PrP^Sc in scrapie-positive sheep brain homogenate (Ovis aries, UniProt P23907); assay type: biochemical
in vitro = details: sheep; for viability at 1 µM: % cell viability
[2] = system: PrP^Sc accumulation in persistently infected hTERT-ovine microglia; assay type: cell-based; details: for EC50: read-out: TC-EC50 (50% tissue culture effective concentration)
[3] = system: PrP^Sc-positive hTERT-ovine microglia; test: cells; assay type: cell-based; details: Ovis aries, 96 h, read-out: % cell count
[4] = system: PrP^Sc-positive hTERT-ovine microglia; test: cells; assay type: cell-based; details: for activity at 1 µM: Ovis aries, Microglia, 96 h, read-out: % BrdU incorporation
[5] = system: PrP^Sc-positive hTERT-ovine microglia
[6] = system: PrP^Sc accumulation in scrapie-infected primary ovine microglia; details: cited from earlier work
[7] = system: PRNP transcripts in PrP^Sc-negative hTERT-ovine microglia; assay type: cell-based
[8] = system: total PrP^C in PrP^Sc-negative hTERT-ovine microglia; assay type: cell-based

Sequence of PrP^Sc in scrapie-positive sheep brain homogenate (P23907 25-233 limits assumed): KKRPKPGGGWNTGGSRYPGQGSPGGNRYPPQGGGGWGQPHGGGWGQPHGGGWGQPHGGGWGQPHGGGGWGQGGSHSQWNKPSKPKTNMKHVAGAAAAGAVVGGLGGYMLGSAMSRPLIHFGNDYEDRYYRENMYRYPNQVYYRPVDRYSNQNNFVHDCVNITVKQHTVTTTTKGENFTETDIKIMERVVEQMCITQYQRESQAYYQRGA

| SMILES | viability at 1 µM (in vitro) | % reduction in PrP^Sc [2] | viability at 1 µM [3] | activity at 1 µM [4] | CC50 (in vitro) | EC50 [2] | also measured |
| --- | --- | --- | --- | --- | --- | --- | --- |
| N=C(N)c1ccc(-c2ccc(-c3nc4ccccc4[nH]3)o2)cc1 [DB771] | 98% | 27% |  |  |  |  | Stabilization of PrP^Sc against PK digestion [1]: significant stabilization of PrP^Sc was not detected |
| N=C(N)c1ccc2nc(-c3ccc(-c4ccc(C(N)=O)cc4)s3)[nH]c2c1 [DB1933] | 127% | 39% |  |  |  |  |  |
| N=C(N)c1ccc2nc(-c3ccc(-c4nc5ccc(C(=N)N)cc5[nH]4)s3)[nH]c2c1 [DB1033] | 91% | 81% and 81^d % | 96% | 68% | > 3160 nM | 580 ± 140 nM | Effect on cell viability in dilution series [5]: failed to demonstrate any effect on cell viability; Selectivity index (CC50/TC-EC50) [2]: >5.4^e |
| N=C(N)c1ccc2nc(-c3ccc(-c4nc5ccc(C(=N)N)cc5[nH]4)[se]3)[nH]c2c1 [DB1310] | 110% | 77% and 77^d % | 92% | 91% | > 3160 nM | 410 ± 80 nM | Effect on cell proliferation (BrdU) over the 4-day treatment period [4]: significant effect on cell proliferation was not detected; Selectivity index (CC50/TC-EC50) [2]: >7.7^e |
| N=C(N)c1ccc2nc(-c3ccc(NC(=O)Nc4ccc(-c5nc6ccc(C(=N)N)cc6[nH]5)cc4)cc3)[nH]c2c1 [DB2265] | 105% | 28% |  |  |  |  |  |
| N=C(N)c1ccc(-c2ccc(-c3ccc(-c4nc5ccc(C(=N)N)cc5[nH]4)cc3)s2)cc1 [DB2214] | 180% | 69^f % | 84% | 68% | > 3160 nM | 260 ± 140 nM |  |
| N=C(N)c1ccc2nc(-c3ccc(-c4ccc(C(N)=O)cc4)o3)[nH]c2c1 [DB1932] | 120% | 24% |  |  |  |  |  |
| Cn1c(-c2ccc(-c3ccc(C4=NCCN4)cc3)o2)nc2ccccc21 [DB948] | 60% | 83% and 83^f % | 68% |  | 1500 ± 500 nM | 430 ± 150 nM |  |
| N=C(N)c1ccc(-c2ccc(-c3nc4ccc(C(=N)N)cc4[nH]3)s2)cc1 [DB818A] | 170% | 74^f % | 85% | 76% | > 3160 nM | 460 ± 80 nM | Stabilization of PrP^Sc against PK digestion [1]: significant stabilization of PrP^Sc was not detected |
| Cn1c(-c2nc3ccc(C(=N)N)cc3[nH]2)ccc1-c1nc2ccc(C(=N)N)cc2[nH]1 [DB191] | 188% | 65^d % | 88% | 74% | > 3160 nM | 490 ± 140 nM | Effect on cell viability in dilution series [5]: failed to demonstrate any effect on cell viability; Selectivity index (CC50/TC-EC50) [2]: >6.4^e |
| N=C(N)c1ccc2nc(-c3ccc(-c4ccc(C(=N)N)c(O)c4)o3)[nH]c2c1 [DB992] | 150% | 30% |  |  |  |  |  |
| c1ccc2[nH]c(-c3ccc(-c4ccc(C5=NCCN5)cc4)o3)nc2c1 [DB772, 2-(2-benzimidazolyl)-5-[4-(2-imidazolino)phenyl] furan dihydrochloride] | 96% |  | 89% | 78% | 3800 ± 900 nM | 800 ± 90 nM | Effect on cell proliferation (BrdU) over the 4-day treatment period [4]: significant effect on cell proliferation was not detected; Inhibition of PrP^Sc accumulation [6]: nearly complete inhibition; Effect on PrP^C expression (PRNP transcripts) [7]: significant effect on PrP^C expression was not detected; Effect on PrP^C expression (total PrP) [8]: significant effect on PrP^C expression was not detected |
| N=C(N)c1ccc2nc(-c3ccc(-c4nc5ccc(C(=N)N)cc5[nH]4)[nH]3)[nH]c2c1 [DB192] | 150% | 61^d % | 98% | 101% | > 3160 nM | 910 ± 80 nM | Effect on cell proliferation (BrdU) over the 4-day treatment period [4]: significant effect on cell proliferation was not detected; Selectivity index (CC50/TC-EC50) [2]: >3.5^e |
| N=C(N)c1ccc2nc(-c3cccc(-c4nc5ccc(C(=N)N)cc5[nH]4)n3)[nH]c2c1 [DB205] | 127% | 52^d % |  |  |  |  |  |
| N=C(N)c1ccc2nc(-c3ccc(-c4ccc(C(=N)N)c(F)c4)o3)[nH]c2c1 [DB989] | 126% | 26% |  |  |  |  |  |
| c1cc(-c2ccc(-c3nc4ccc(C5=NCCN5)cc4[nH]3)o2)ccc1C1=NCCN1 [DB302] | 205% | 19% |  |  |  |  |  |
| N=C(N)c1ccc(-c2ccc(-c3nc4ccc(C(=N)N)cc4[nH]3)o2)cc1 [DB293] | 135% | 51^f % |  |  |  |  |  |
| N=C(N)c1ccc2nc(-c3ccc(-c4ccc(OCc5cn(CCc6cccc7ccccc67)nn5)cc4)s3)[nH]c2c1 [DB2228] | 120% | 63^f % | 82% | 92% | > 3160 nM | 200 ± 80 nM | Effect on cell proliferation (BrdU) over the 4-day treatment period [4]: significant effect on cell proliferation was not detected; Selectivity index (CC50/TC-EC50) [2]: >15.8^e |
| c1ccc(-c2ccc(-c3nc4ccc(C5=NCCN5)cc4[nH]3)s2)cc1 [DB953] | 134% | 53^f % |  |  |  |  |  |
| N=C(N)c1ccc2nc(-c3ccc(-c4cccc(-c5ccc(-c6nc7ccc(C(=N)N)cc7[nH]6)o5)c4)o3)[nH]c2c1 [DB2147] | 90% | 37% |  |  |  |  |  |
| Nc1cccc(-c2ccc(-c3nc4ccc(C5=NCCN5)cc4[nH]3)o2)c1 [DB900] | 125% | −5% |  |  |  |  |  |
| Cc1cc(C(=N)N)ccc1-c1ccc(-c2nc3ccc(C(=N)N)cc3[nH]2)o1 [DB850] | 154% | 11% |  |  |  |  |  |
| N=C(N)c1ccc2nc(-c3ccc(-c4ccc(-c5ccccc5)cc4)o3)[nH]c2c1 [DB1275] | 115% | 49^f % |  |  |  |  |  |
| c1ccc2[nH]c(-c3ccc(-c4ccc(C5=NCCN5)cc4)s3)nc2c1 [DB932A] | 81% | 70^f % | 92% | 66% | 2500 ± 300 nM | 390 ± 110 nM | Stabilization of PrP^Sc against PK digestion [1]: significant stabilization of PrP^Sc was not detected |
| N=C(N)c1ccc2nc(-c3ccc(-c4ccc([N+](=O)[O-])cc4)o3)[nH]c2c1 [DB472] | 120% | 11% |  |  |  |  |  |
| N=C(N)c1ccc2nc(-c3ccc(-c4ccc(-c5nc6ccc(C(=N)N)cc6[nH]5)o4)cc3)[nH]c2c1 [DB2137] | 102% | 31% |  |  |  |  |  |
| N=C(N)c1ccc(-c2ccc(-c3cnc4ccc(C(=N)N)cc4c3)s2)cc1 [DB1504] | 156% |  | 102% | 100% | > 3160 nM | 390 ± 110 nM | Effect on cell proliferation (BrdU) over the 4-day treatment period [4]: significant effect on cell proliferation was not detected; Selectivity index (CC50/TC-EC50) [2]: >8.1^e |
| COc1ccc(-c2ccc(-c3nc4ccc(C(=N)N)cc4[nH]3)s2)cc1 [DB2263] | 108% | 46^f % |  |  |  |  |  |
| N=C(N)c1ccc(-c2ccc(-c3ccc(-c4nc5ccc(C(=N)N)cc5[nH]4)cc3)o2)nc1 [DB1264] | 138% | 68^f % | 89% | 77% | > 3160 nM | 390 ± 60 nM | Effect on cell proliferation (BrdU) over the 4-day treatment period [4]: significant effect on cell proliferation was not detected; Selectivity index (CC50/TC-EC50) [2]: >8.1^e |
| N=C(N)c1ccc(-c2ccc(-c3ccc(C(=N)N)cc3)o2)cc1 [DB075, furamidine] | 149% | 27% |  |  |  |  |  |
